# Measured values published in patent publication US4889860A (Nova Pharmaceutical Corporation, priority 1987, dated 1989).
# Where two headings read alike, the source gives them in different places.
# Key:
# [1] = tested on: oxymorphonazine (OMZ)-induced analgesia; experiment: antagonism of oxymorphonazine (OMZ)-induced analgesia (tail flick) in rats; format: in vivo, rat
# Description: The compound of Example XII was evaluated for its potency and duration in the antagonism of oxymorphonazine (OMZ)-induced analgesia. […] Data represent the mean SEM of 4-5 animals per group.
# (Cowan A. Trendsin Pharmacology Science, 7:69-72, 1986) With this test the intracerebroventricular administration of bombesin produces a characteristic scratching response.
# [2] = target: delta-type opioid receptor (Rattus norvegicus, UniProt P33533); experiment: inhibition of specific [^3 H] DADLE binding to rat forebrain membranes
# Sequence of delta-type opioid receptor (P33533 whole entry): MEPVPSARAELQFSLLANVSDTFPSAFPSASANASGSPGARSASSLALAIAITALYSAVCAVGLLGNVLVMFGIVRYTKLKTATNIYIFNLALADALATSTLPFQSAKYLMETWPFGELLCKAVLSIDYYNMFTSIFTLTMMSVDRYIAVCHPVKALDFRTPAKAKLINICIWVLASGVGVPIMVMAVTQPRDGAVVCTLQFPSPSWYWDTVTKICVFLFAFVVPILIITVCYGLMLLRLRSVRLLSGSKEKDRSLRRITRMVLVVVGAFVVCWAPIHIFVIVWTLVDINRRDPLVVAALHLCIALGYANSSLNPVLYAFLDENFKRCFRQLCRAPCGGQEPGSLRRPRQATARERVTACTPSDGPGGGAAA
# [3] = water intake in 24 hr food-deprived rats; format: in vivo, rat; details: for Water Intake: Table 3, 24 hr; for Cumulative Water Intake: Table 5
# Description: Rats were given water and powdered food ad lib for 8 days until food intake had stabilized, and body weight and food and water intakes were recorded at the same time every day. Animals were assigned to treatment groups matched on the basis of their 24 hr food consumption on the last baseline day, and rats were food deprived for 24 hr immediately before injection of the test compound. […] The compound of Example XII was injected S.C. at doses of 1.15, 2.31, 11.55 and 23.09 μmol/kg, in a volume of 4 ml/kg of 0.3% acetic acid. Controls were injected with the vehicle solutions in the appropriate volumes. Food and water intakes were measured at 1, 3 and 24 hr after treatment. Data for each measure and time point were analyzed by one-way analysis of variance (ANOVA), and post-hoc comparisons were performed using Dunnett's test in order to compare the control mean to each of the treatment means.
# Rats were given water and powdered food for 8 days, and following this,
# Testing was performed as described above, and baseline measurements were recorded for 7 days. […] The compound of Example XII was injected at doses of 11.55, 23.09, 46.19 and 92.38 μmol/kg by suspension in a solution of 1:1 DMSO:water in a volume of 3 ml/kg. Food and water intakes were recorded at 1, 2, 4 and 6 h following treatment.
# See Table 3 for experimental details, except that baseline measurements
# [4] = target: T1, kappa-type opioid receptor (Cavia porcellus, UniProt P41144); experiment: inhibition of specific [^3 H] EKC binding to guinea pig cerebellum membrane
# T1 construct: using guiniea pig cerebellum membrane; from tissue; host or cells: guinea pig cerebellum membranes
# T1 sequence (P41144 whole entry): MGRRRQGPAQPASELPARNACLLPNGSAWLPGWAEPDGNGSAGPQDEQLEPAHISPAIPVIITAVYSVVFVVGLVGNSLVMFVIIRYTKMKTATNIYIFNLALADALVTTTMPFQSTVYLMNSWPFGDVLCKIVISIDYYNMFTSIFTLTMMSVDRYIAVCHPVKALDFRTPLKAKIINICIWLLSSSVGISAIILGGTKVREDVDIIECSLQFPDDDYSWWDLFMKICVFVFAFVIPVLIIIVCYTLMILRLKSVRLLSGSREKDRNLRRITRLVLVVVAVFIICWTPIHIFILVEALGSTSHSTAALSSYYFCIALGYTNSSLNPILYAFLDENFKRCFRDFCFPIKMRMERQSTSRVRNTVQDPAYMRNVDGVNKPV
# mu-type opioid receptor = target: T2, mu-type opioid receptor (Rattus norvegicus, UniProt P33535); experiment: inhibition of specific [^3 H] DAGO binding to rat forebrain membranes
# T2 construct: using rat forebrain membranes; from tissue; host or cells: rat forebrain membranes
# T2 sequence (P33535 whole entry): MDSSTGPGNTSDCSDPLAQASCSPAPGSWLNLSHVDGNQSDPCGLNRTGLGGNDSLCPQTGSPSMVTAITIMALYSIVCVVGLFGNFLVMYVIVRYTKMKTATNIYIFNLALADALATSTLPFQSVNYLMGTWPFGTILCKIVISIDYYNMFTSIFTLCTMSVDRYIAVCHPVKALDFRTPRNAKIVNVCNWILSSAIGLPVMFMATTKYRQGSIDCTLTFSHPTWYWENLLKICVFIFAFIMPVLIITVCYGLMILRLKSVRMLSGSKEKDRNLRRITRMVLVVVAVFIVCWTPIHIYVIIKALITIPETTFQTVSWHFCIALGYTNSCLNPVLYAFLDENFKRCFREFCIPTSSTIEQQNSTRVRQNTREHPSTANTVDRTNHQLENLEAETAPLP
# [5] = S.C., dose tested (mg/kg): Naltrexone 0.5, Nalmefene 1.0, XI 10.0, XII 2.5, XIII 0.5, XIV 5.0
smiles,measurement,setting,value
"Oc1ccc2c3c1O[C@H]1C(=NOc4ccccc4)CC[C@@]4(O)[C@@H](C2)N(CC2CC2)CC[C@]314 [Example XII, 6-Phenyloximino-17-cyclopropylmethyl-4,5 α-epoxy-3, 14-dihydroxymorphinan]","antagonism of OMZ-induced analgesia, PO","[1]; PO, 42.64 μmol/kg, 0.5 hours",50%
same,ED50,"[1]; Rattus norvegicus, sc, Table 8, S.C., read-out: ED 50, oxymorphonazine antagonism",0.34 mg/kg
same,ED100,"[1]; Rattus norvegicus, sc, Table 8, S.C., read-out: ED 100, oxymorphonazine antagonism",3.1 mg/kg
same,Percent Antagonism at 1 Hr,[1]; [5],90%
same,Percent Antagonism at 1.5 Hr,[1]; [5],92%
same,Percent Antagonism at 2 Hr,[1]; [5],91%
same,Percent Antagonism at 3 Hr,[1]; [5],77%
same,Percent Antagonism at 4 Hr,[1]; [5],91%
same,Percent Antagonism at 6 Hr,[1]; [5],92%
same,Percent Antagonism at 8 Hr,[1]; [5],80%
same,Ki,"[2]; read-out: (Ki) nM, δ receptor (Rat Forebrain), Table 6, [^3 H] DADLE, mean of three experiments",0.58 nM
same,Ki,"[2]; read-out: Ki, inhibition of specific [^3 H] DADLE binding, Tables 1 and 2, rat brain membranes, MEAN±S.E.M.",1.7 ± 0.51 nM
same,Water Intake,[3]; S.C. 1.15 μmol/kg,68.3 ± 8.8 mL
same,Water Intake,[3]; S.C. 2.31 μmol/kg,65.0 ± 6.2 mL
same,Water Intake,[3]; S.C. 11.55 μmol/kg,60.3 ± 2.1 mL
same,Water Intake,[3]; S.C. 23.09 μmol/kg,62.8 ± 3.6 mL
same,Cumulative Water Intake,"[3]; S.C. 11.55 μmol/kg, 0-1 Hr",4.8 ± 1.1 mL
same,Cumulative Water Intake,"[3]; S.C. 11.55 μmol/kg, 0-2 Hr",8.0 ± 1.2 mL
same,Cumulative Water Intake,"[3]; S.C. 11.55 μmol/kg, 0-4 Hr",15.6 ± 2.5 mL
same,Cumulative Water Intake,"[3]; S.C. 11.55 μmol/kg, 0-6 Hr",22.0 ± 1.6 mL
same,Cumulative Water Intake,"[3]; S.C. 23.09 μmol/kg, 0-1 Hr",4.0 ± 1.0 mL
same,Cumulative Water Intake,"[3]; S.C. 23.09 μmol/kg, 0-2 Hr",7.2 ± 0.6 mL
same,Cumulative Water Intake,"[3]; S.C. 23.09 μmol/kg, 0-4 Hr",13.2 ± 2.3 mL
same,Cumulative Water Intake,"[3]; S.C. 23.09 μmol/kg, 0-6 Hr",19.6 ± 2.2 mL
same,Cumulative Water Intake,"[3]; S.C. 46.19 μmol/kg, 0-1 Hr",5.2 ± 0.9 mL
same,Cumulative Water Intake,"[3]; S.C. 46.19 μmol/kg, 0-2 Hr",8.0 ± 1.6 mL
same,Cumulative Water Intake,"[3]; S.C. 46.19 μmol/kg, 0-4 Hr",15.2 ± 1.5 mL
same,Cumulative Water Intake,"[3]; S.C. 46.19 μmol/kg, 0-6 Hr",20.8 ± 2.9 mL
same,Cumulative Water Intake,"[3]; S.C. 92.38 μmol/kg, 0-1 Hr",4.0 ± 0.7 mL
same,Cumulative Water Intake,"[3]; S.C. 92.38 μmol/kg, 0-2 Hr",7.6 ± 0.8 mL
same,Cumulative Water Intake,"[3]; S.C. 92.38 μmol/kg, 0-4 Hr",15.2 ± 1.8 mL
same,Cumulative Water Intake,"[3]; S.C. 92.38 μmol/kg, 0-6 Hr",21.2 ± 2.1 mL
same,Ki,[4],3.47 nM
same,Ki,"mu-type opioid receptor; (Ki) nM, μ receptor (Rat Forebrain), Table 6, [^3 H] DAGO, mean of three experiments",0.3 nM
same,Ki,"mu-type opioid receptor; Ki, inhibition of specific [^3 H] DAGO binding, Tables 1 and 2, rat brain membranes, MEAN±S.E.M.",0.21 ± 0.08 nM
